Patent publication US20130136794A1, “HETEROARYL (ALKYL) DITHIOCARBAMATE COMPOUNDS, PREPARATION METHODS AND USES THEREOF” (PEKING UNIVERSITY, priority 2010, published 2013)
pEC50: −log10 of the molar value.

What was measured:
[1] = tested on: human leukaemia HL-60 cells; test: EC50 on proliferation of HL-60 cells (MTT, 48 h); assay type: cell-based; conditions: read-out: HL-60 EC50 (nmol)
Method: (§1) EC50 values of the compounds according to the present invention on the proliferation of human leukaemia HL-60 cells and Bel-7402 cells were determined by using the following method, and the results are shown in Table 2.
Testing method for EC50 values on the human leukaemia HL-60 cells: The human leukaemia HL-60 cells were cultured in vitro. The cells were collected after growth to logarithmic phase, and centrifugated at 1000 rpm for 5 min. The supernatant was discarded and the cells were suspended in an appropriate amount of medium. The cell concentration was adjusted to 1.2×10^4/mL. The cells were seeded into 96-well culture plates in 90 μL per well. For each well of the drug treatment groups, 10 μL of medium-diluted drug was added, whereas for the blank control groups, the same amount of medium was added. Every testing drug was set up for three parallel wells, and also three control wells with only testing drugs (without cell) were set up. Negative control groups were medium containing 0.5% DMSO. After the plate was incubated in an incubator for 48 h, 10 μL of 5 mg/mL MTT was added into each well, and then the plate was placed for 3 h at 37° C. 100 μL of ternary solution (5% SDS, 10 mM HCl, 5% isopropanol) was added into each well, and the plate was kept at 37° C. overnight. The absorbance (OD) was measured at 595 nm/620 nm. The EC50 values were calculated by using Prism Graphpad statistical software.

Bel-7402 cells = test: EC50 on proliferation of Bel7402 cells (SRB, 48 h); assay type: cell-based; conditions: Homo sapiens, read-out: Bel7402 EC50 (nmol)
Method: as §1
Testing method for ED50 values on the human Be17402ce11: After the cells were incubated with the addition of the drugs for 48 h, the plates were taken out. 50 μL of pre-cooled 500 g/L trichloroacetic acid was added into each well. The plates were kept in 4° C. refrigerator for 1 h after standing for 5 min, taken out, washed with deionized water for 5 times, and dried in the air. After the plates were completely dried, 100 μL of 0.4% SRB (formulated in 1% acetic acid) was added into each well. Following staining for 20 min, the staining solution was discarded, and the residue was washed with 1% acetic acid for 5 times to remove the uncombined dye. After being dried in the air, the residue was dissolved in 150 μL of 10 mmol/L unbuffered
Tris basic solution (pH=10.5), and oscillated in an oscillator for 5 min. The absorbance of each well at 490 nm was measured with TECAN enzyme mark instrument. The cells in background control plates were treated in the same way for measuring OD490. The EC50 values were calculated by using Prism Graphpad statistical software.

HL-60 human leukaemia = test: Inhibition of tumor cell proliferation at 10 μM, Model A: MTT method; assay type: cell-based; conditions: HL-60, MTT method, read-out: Model A Inhibitory rate (%)
Text: (§2) The evaluation of the compounds according to the present invention on the inhibition rate of the proliferation of four different tumor cells, using the routine method for anti-tumor activity tests in the pharmaceutical filed, for example the method described in the following literature: (J. Immuno/Method, 1983, 65, 55).

[2] = tested on: BGC-823 human gastric cancer; test: Inhibition of tumor cell proliferation at 10 μM, Model B: SRB method; assay type: cell-based; conditions: BGC-823, SRB method, read-out: Model B Inhibitory rate (%)
Text: as §2

[3] = tested on: Bel-7402 human liver cancer; test: Inhibition of tumor cell proliferation at 10 μM, Model C: SRB method; assay type: cell-based; conditions: Bel-7402, SRB method, read-out: Model C Inhibitory rate (%)
Text: as §2

[4] = tested on: KB human nasopharyngeal cancer; test: Inhibition of tumor cell proliferation at 10 μM, Model D: SRB method; assay type: cell-based; conditions: read-out: Model D Inhibitory rate (%)
Text: as §2

Row | Compound | pEC50 [1] | pEC50 (Bel-7402 cells) | melting point [°C] | inhibition at 10 µM (HL-60 human leukaemia) [%] | inhibition at 10 µM [2] [%] | inhibition at 10 µM [3] [%] | inhibition at 10 µM [4] [%]
1 | N#CCCSC(=S)NCc1cnc(N2CCOCC2)nc1 [Compound 41, 2-cyanoethyl[(2-morpholinopyrimidin-5-yl)methyl]dithiocarbamate] | 8.30 | 7.65 | 151 to 154 |  |  |  | 
2 | COc1ccc(CNC(=S)SCCC#N)cn1 [Compound 33, 2-cyanoethyl[(6-methoxypyridin-3-yl)methyl]dithiocarbamate] | 9.09 | 6.96 | 90 to 92 |  |  |  | 
3 | CC(NC(=S)SCCC#N)c1cccnc1 (stereo not shown) [Compound 32, 2-cyanoethyl[1-(pyridin-3-yl)ethyl]dithiocarbamate] | 8.48 | 7.19 |  |  |  |  | 
4 | Cc1c(CNC(=S)SCCC#N)cnn1-c1ccccc1 [Compound 35, 2-cyanoethyl[(5-methyl-1-phenyl-1H-pyrazol-4-yl)methyl]dithiocarbamate] | 8.22 | 7.60 |  |  |  |  | 
5 | NS(=O)(=O)CCSC(=S)NCc1ccco1 [Compound 5, 2-sulfamoylethyl(furan-2-ylmethyl)dithiocarbamate] |  |  |  | 17.3 | 17.2 | 17.5 | 31.6
6 | N#CCCSC(=S)NCc1ccc(-c2ccco2)nc1 [Compound 25, 2-cyanoethyl{[6-(furan-2-yl)pyridin-3-yl]methyl}dithiocarbamate] | 8.32 | 7.67 | 118 to 120 |  |  |  | 
7 | N#CCCSC(=S)NCc1ccncc1 [Compound 28, 2-cyanoethyl(pyridin-4-ylmethyl)dithiocarbamate] | 7.25 | 7.98 |  |  |  |  | 
8 | CC(C)(C)C(=O)Nc1ccncc1CNC(=S)SCCC#N [Compound 17, 2-cyanoethyl[(4-pivalamidopyridin-3-yl)methyl]dithiocarbamate] | 9.33 | 7.49 | 122 to 124 |  |  |  | 
9 | C[S+]([O-])CCSC(=S)NCc1cccnc1 (stereo not shown) [Compound 15, 2-(methylsulfinyl)ethyl(pyridin-3-ylmethyl)dithiocarbamate] |  |  |  | 26.1 | 9.95 | -2.37 | 3.58
10 | OB(O)CCSC(=S)NCc1ccco1 [Compound 6, 2-boronoethyl(furan-2-ylmethyl)dithiocarbamate] |  |  |  | 0.06 | 14.5 | 2.9 | 1.68
11 | N#CCCSC(=S)Nc1cccnc1 [Compound 30, 2-cyanoethyl pyridin-3-yldithiocarbamate] | 7.09 | 6.54 |  |  |  |  | 
12 | N#CCCSC(=S)NCc1cnccn1 [Compound 39, 2-cyanoethyl(pyrazin-2-ylmethyl)dithiocarbamate] | < 6.00 | < 6.00 | 96 to 99 |  |  |  | 
13 | COc1cncc(CNC(=S)SCCC#N)c1 [Compound 23, 2-cyanoethyl[(5-methoxypyridin-3-yl)methyl]dithiocarbamate] | 9.25 | 7.99 | 86 to 90 |  |  |  | 
14 | N#CCCSC(=S)NC(c1ccccc1)c1cccnc1 (stereo not shown) [Compound 31, 2-cyanoethyl[phenyl(pyridin-3-yl)methyl]dithiocarbamate] | 8.33 | 6.63 | 118 to 120 |  |  |  | 
15 | N#CCCSC(=S)NCc1ccco1 [Compound 3, 2-cyanoethyl(furan-2-ylmethyl)dithiocarbamate] |  |  |  | 24.6 | 29.5 | 68.2 | 55.1
16 | N#CCCSC(=S)NCCCc1cccnc1 [Compound 42, 2-cyanoethyl[3-(pyridin-3-yl)propyl]dithiocarbamate] | 8.32 | 8.46 | 81 to 83 |  |  |  | 
17 | CN1CCOC2C=C(CNC(=S)SCCC#N)C=NC21 (stereo not shown) [Compound 26, 2-cyanoethyl[(4-methyl-3,4,4a,8a-tetrahydro-2/4-pyrido[3,2-b][1 ,4]oxazin-7-yl)-methyl]dithiocarbamate] | 7.09 | 7.02 | 117 to 118 |  |  |  | 

Row | Compound | pEC50 [1] | pEC50 (Bel-7402 cells) | melting point [°C] | inhibition at 10 µM (HL-60 human leukaemia) [%] | inhibition at 10 µM [2] [%] | inhibition at 10 µM [3] [%] | inhibition at 10 µM [4] [%]
18 | N#CCCSC(=S)NCc1nnc(-c2ccccc2)o1 [Compound 40, 2-cyanoethyl[(5-phenyl-1,3,4-oxadiazol-2-yl)methyl]dithiocarbamate] | 7.85 | 7.59 | 148 to 152 |  |  |  | 
19 | N#CCCSC(=S)NCc1nccs1 [Compound 38, 2-cyanoethyl(thiazol-2-ylmethyl)dithiocarbamate] | 6.96 | 6.53 | 76 to 78 |  |  |  | 
20 | COC(=O)c1ccc(CNC(=S)SCCC#N)cn1 [Compound 21, 2-cyanoethyl[(6-methoxycarbonylpyridin-3-yl)methyl]dithiocarbamate] | 8.16 | 6.93 | 106 to 112 |  |  |  | 
21 | N#CCCSC(=S)NCc1cncnc1 [Compound 36, 2-cyanoethyl(pyrimidin-5-ylmethyl)dithiocarbamate] |  |  | 168 to 171 |  |  |  | 
22 | N#CCCSC(=S)NCc1cncc(Br)c1 [Compound 24, 2-cyanoethyl[(5-bromopyridin-3-yl)methyl]dithiocarbamate] | 8.31 | 7.69 | 102 to 108 |  |  |  | 
23 | CN(Cc1cccnc1)C(=S)SCCC#N [Compound 29, 2-cyanoethyl N-methyl-(pyridin-3-ylmethyl)dithiocarbamate] | 6.87 | 8.66 |  |  |  |  | 
24 | N#CCCSC(=S)NCc1cnc2ccccc2c1 [Compound 18, 2-cyanoethyl(quinolin-3-ylmethyl)dithiocarbamate] | 8.29 | 6.49 | 120 to 122 |  |  |  | 
25 | N#CCCSC(=S)NCc1nnc(-c2ccccc2)s1 [Compound 45, 2-cyanoethyl[(5-phenyl-1,3,4-thiadiazol-2-yl)methyl]dithiocarbamate] | 7.93 | 7.73 | 156 to 158 |  |  |  | 
26 | COc1ncccc1CNC(=S)SCCC#N [Compound 20, 2-cyanoethyl[(2-methoxypyridin-3-yl)methyl]dithiocarbamate] | 9.10 | 8.12 | 88 to 92 |  |  |  | 
27 | N#CCCSC(=S)NCc1ccc[nH]1 [Compound 46, 2-cyanoethyl[(1H-pyrrol-2-yl)methyl]dithiocarbamate] | 6.55 | 6.64 |  |  |  |  | 
28 | Cc1cc(CNC(=S)SCCC#N)n(C)n1 [Compound 37, 2-cyanoethyl[(1,3-dimethyl-1H-pyrazol-5-yl)methyl]dithiocarbamate] | 8.38 | 8.37 |  |  |  |  | 
29 | N#CCCSC(=S)NCCc1cccnc1 [Compound 19, 2-cyanoethyl[2-(pyridin-3-yl)ethyl]dithiocarbamate] | 9.10 | 7.73 |  |  |  |  | 
30 | NS(=O)(=O)CCSC(=S)NCc1cccnc1 [Compound 13, 2-sulfamoylethyl(pyridin-3-ylmethyl)dithiocarbamate] |  |  |  | -4.25 | 18.4 | 5.87 | 17.6
31 | Cc1cc(C)c(CNC(=S)SCCC#N)cn1 [Compound 22, 2-cyanoethyl[(4,6-dimethylpyridin-3-yl)methyl]dithiocarbamate] | 8.77 | 7.63 | 138 to 142 |  |  |  | 
32 | N#CCCSC(=S)NCc1ccc(Oc2ccccc2)nc1 [Compound 27, 2-cyanoethyl[(6-phenoxypyridin-3-yl)methyl]dithiocarbamate] | 9.26 | 7.31 |  |  |  |  | 
33 | COC(=O)CCSC(=S)NCc1cccnc1 [Compound 10, 2-(methoxycarbonyl)ethyl(pyridin-3-ylmethyl)dithiocarbamate] |  |  |  | 61.9 | 72 | 87.5 | 91.5
34 | Cc1nc(-c2ccccc2)oc1CNC(=S)SCCC#N [Compound 34, 2-cyanoethyl[(4-methyl-2-phenyloxazol-5-yl)methyl]dithiocarbamate] | 8.10 | 7.75 | 221 to 224 |  |  |  | 
